Measurements from PMC6478794, “Identification of a Novel Bcl-2 Inhibitor by Ligand-Based Screening and Investigation of Its Anti-cancer Effect on Human Breast Cancer Cells” (Frontiers in Pharmacology, 2019).
Read-outs that look alike come from different tables or passages of the source.

Experiments:
[1] = target: recombinant human Bcl-2 protein (Homo sapiens, UniProt P10415); assay: Surface plasmon resonance (SPR) binding assay
Protocol: The interaction between virtual screening candidates and Bcl-2 was determined using a PlexArray HT biological molecular interaction analyzer (PLEXERA LLC, USA). Candidates were covalently immobilized to the surface of sensor chip following the standard coupling reaction guide. Candidates were dissolved in DMSO to a final concentration of 10 μM. To analyze binding signal, a set of concentration gradient (700, 350, 175, 87.5 nM) of Bcl-2 protein were, respectively, diluted with PBST (1x PBS + 0.1% Tween-20, pH 7.4). PBST was also used as running buffer and samples were injected into the flow cell chamber of the sensor chip one by another with rate of 2 μL/s for 300 s. After the injection stage, running buffer was flowed over the chip surface for 300 s at 2 μL/s to allow the bound analytes to dissociate from the Bcl-2. The response unit (RU) of sample dots on the chip surface was recorded by the interaction analyzer during the whole process. In this way, dissociation curves obtained. HBS-P buffer was used as vehicle controls. Lastly, the changes in RU and the binding curve were measured by the PlexeraDE software (PLEXERA LLC, USA).

MDA-MB-231 cells [2] = assay: Cell viability CCK-8 assay; type: cell-based; details: Homo sapiens, 48 h
Protocol: (§1) The human breast cancer cell line MDA-MB-231, T47D, and BT549, were purchased from Cell Bank of Chinese Academy of Sciences. MDA-MB-231 were cultured in L-15 medium with 10% FBS at 37°C with 100% air, and T47D were cultured in DMEM/High glucose medium with 10% FBS at 37°C with 5% CO2. BT549 was cultured in 1,640 medium with 10% FBS at 37°C with 5% CO2.
(§2) Cell viability was measured by Cell Counting Kit-8 (CCK-8) assay following the manufacturer's protocol. Cells were plated at 5 × 10^3 cells per well in 96-well plates. After compound M1 treatment, cells were incubated with 10 μL CCK-8 for 2 h at 37°C with 5% CO2. The results were determined at 450 nm wave length.

[3] = set-up: method as in Seymour et al., 2013; Vandenberg and Cory, 2013; details: ref Seymour et al., 2013, Vandenberg and Cory, cited from earlier work
Bcl-2 [4] = details: cited from earlier work
Bcl-xl = details: cited from earlier work
Mcl-1 = details: cited from earlier work
[5] = cited from earlier work
hematologic malignancies = details: preclinical researches; cited from earlier work
[6] = set-up: method as in Schoenwaelder et al., 2011; details: in vivo; ref Schoenwaelder et al., 2011; cited from earlier work
T47D cells [7] = assay: Annexin V-FITC/PI apoptosis assay (flow cytometry); type: cell-based, human; details: 48 h
Protocol: Cell apoptosis was measured by Annexin V-FITC/PI double-staining Kit following the manufacturer's protocol. After treatment with 8 or 16 μM compound M1 for 48 h, cells were washed twice with cold phosphate buffer saline and then, suspended in 100 μL binding buffer (BD CAT. NO.556547) with 5 μL Annexin-V (BD CAT. NO.556420) and 5 μL PI (BD CAT. NO.556463). And cells were gently vortexed and incubated at room temperature for 15 min in darkness for flow cytometric (Becton Dickison) analysis.

MDA-MB-231 cells [8] = assay: EdU incorporation assay; type: cell-based, human; details: 4 or 8 μM, 48 h
Protocol: Cell Proliferation was measured by Cell Light EdU DNA Cell Proliferation Kit. Cells were plated in 96-well culture plates. Cells were treated with 4 or 8 μM compound M1 for 48 h. At the end of treatment, cells were incubated with EdU reagent for 2 h at 37°C. Four percent of paraformaldehyde was used to fix the cells for 15 min. Then, cells were incubated with 0.5% Triton X-100 for 30 min. Washed cells with PBS three times. After that, cells were dyed with reaction cocktail for 30 min, and stained cell nucleus with 5 μg/mL of Hoechst 33,342 for 30 min. Images were observed by fluorescent microscope.

MDA-MB-231 cells [9] = assay: Clonogenic assay; type: cell-based, human; details: 4 or 8 μM, 48 h, then 10 days
Protocol: The cells were plated at 200 cells per well in six-well culture plates followed by compound M1 for 48 h. At the end of treatment, the cells were cultured with fresh medium, and were grown at 37°C for 10 days. After colony formation, the cells were washed with PBS and immobilized by 4% formaldehyde at room temperature for 30 min. Finally, the cells were dyed with 0.5% crystal violet.

Bcl-2 [10] = assay: Western blot of Bcl-2 expression; type: cell-based, human; details: MDA-MB-231, T47D, and BT549 cells; different doses 48 h or 8 μM over time
Protocol: (§3) After compound M1 treatment, cells were lysed with RIPA buffer supplemented with protease inhibitor (Selleck) on ice for 30 min following by centrifugation at 14,000 × g for 15 min. Protein concentrations of the lysates were determined by BCA assay kit. Equivalent amounts of cellular protein were separated by SDS-PAGE and transferred to polyvinylidene difluoride membranes. And then, the membranes were blocked with 5% skim milk in TBST. The membranes were incubated with primary antibodies and peroxidase-conjugated secondary antibodies. Finally, the membranes were visualized with an enhanced chemiluminescent detection kit.

MDA-MB-231 cells [11] = assay: Mitochondrial membrane potential (JC-1 staining); type: cell-based, human; details: 2 or 4 μM, 48 h
Protocol: The MMP was measured using JC-1 assay kit according to the manufacturer's protocol. Cells were treated with 2 or 4 μM compound M1 for 48 h. The cells were cultured with JC-1 staining reagent (1x) at 37°C for 20 min. Cells were washed twice by JC-1 staining buffer. Next, the fluorescence intensity of JC-1 aggregate or monomer was observed by fluorescent microscopic. The ratio of aggregates to monomers was estimated as a symbol of mitochondrial membrane potential.

MDA-MB-231 cells [12] = assay: Detection of reactive oxygen species (DCFH-DA); type: cell-based, human; details: 2 or 4 μM, 48 h
Protocol: Cells were treated with 2 or 4 μM compound M1 for 48 h. After that, cells were rinsed twice with PBS and incubated with DCFH-DA (10 μmol/L) at 37°C in a darkroom. The fluorescence intensity of DCF was detected at an emission wavelength of 525 nm and excitation wavelength of 488 nm.

T47D cells [13] = assay: Western blot of cytochrome c in mitochondrial and cytosol fraction; type: cell-based, human; details: 4 or 8 μM, 48 h
Protocol: as §3

T47D and BT549 cells = assay: Western blot of cleaved caspase-3 and cleaved PARP; type: cell-based, human; details: 48 h
Protocol: as §3

[14] = test system: MDA-MB-231, T47D, and BT549 cells; assay: CCK-8 cell viability, dose and time course in three breast cancer cell lines; type: cell-based, human; details: series of doses 72 h; time course at 5, 2, or 3 μM
Protocol: as §1, §2

[15] = compound immobilized on chip, Bcl-2 protein 700 nM, read-out: KD, dissociation equilibrium constant

Sequence of recombinant human Bcl-2 protein (P10415 whole entry): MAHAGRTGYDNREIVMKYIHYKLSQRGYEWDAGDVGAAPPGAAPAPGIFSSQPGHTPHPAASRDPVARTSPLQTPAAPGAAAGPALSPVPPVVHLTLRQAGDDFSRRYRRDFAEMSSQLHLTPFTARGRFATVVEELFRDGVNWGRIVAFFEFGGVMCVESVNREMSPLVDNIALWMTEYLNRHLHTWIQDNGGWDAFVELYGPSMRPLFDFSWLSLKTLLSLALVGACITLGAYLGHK

Cc1cc(C(=O)C2=C(O)C(=O)N(CCCN3CCOCC3)C2c2cccc(Oc3ccccc3)c2)ccc1OCc1ccccc1 (stereo not drawn) [M3]
Kd [1, 15]: 856 nM
IC50 (MDA-MB-231 cells [2]): > 50000 nM

CC1(C)CCC(CN2CCN(c3ccc(C(=O)NS(=O)(=O)c4ccc(NCC5CCOCC5)c([N+](=O)[O-])c4)c(Oc4cnc5[nH]ccc5c4)c3)CC2)=C(c2ccc(Cl)cc2)C1 [ABT-199]
tumor lysis syndrome ([3]; patients with chronic lymphocytic leukemia): tumor lysis syndrome was caused
activity in patients with lymphoma ([3]; phase I trials): greater activity than ABT-263
effects on platelet counts ([3]; phase I trials): no significant effects on platelet counts

AT-101
affinity with Bcl-2 (Bcl-2 [4]): submicromolar concentrations
affinity with Bcl-xl (Bcl-xl): submicromolar concentrations
affinity for Mcl-1 (Mcl-1): submicromolar concentrations
clinical activity ([5]; early phase II trials, monotherapy or combination, lung and prostate cancers, ref Ready et al., 2011): failed to exert significant clinical activity
tolerability in patients ([5]; ref Liu et al., 2009): well-tolerated

CN(C)CC[C@H](CSc1ccccc1)Nc1ccc(S(=O)(=O)NC(=O)c2ccc(N3CCN(Cc4ccccc4-c4ccc(Cl)cc4)CC3)cc2)cc1[N+](=O)[O-] [ABT-737]
affinity with Bcl-2 (Bcl-2 [4]): high affinity
affinity with Bcl-xl (Bcl-xl): high affinity
cytotoxicity against hematologic malignancies (hematologic malignancies): significant cytotoxicity
thrombocytopenia [6]: can cause thrombocytopenia

CCN(CC)c1ccc(N2C(C(C)=O)=NN(c3ccc(Cl)cc3)C2c2ccccc2OCc2ccc(Cl)cc2Cl)cc1 (stereo not drawn) [M7]
Kd [1, 15]: 1590 nM
IC50 (MDA-MB-231 cells [2]): > 50000 nM

CC1(C)CCC(c2ccc(Cl)cc2)=C(CN2CCN(c3ccc(C(=O)NS(=O)(=O)c4ccc(N[C@H](CCN5CCOCC5)CSc5ccccc5)c(S(=O)(=O)C(F)(F)F)c4)cc3)CC2)C1 [ABT-263]
cytotoxicity against hematologic malignancies (hematologic malignancies): significant cytotoxicity
thrombocytopenia [6]: can cause thrombocytopenia

COc1cc(N2C(C(C)=O)=NN(c3ccc(C)cc3)C2c2ccccc2OCc2ccccc2F)ccc1NC(=O)C(C)C (stereo not drawn) [M1]
koff [1]: 0.00142 s⁻¹
kon [1]: 4480 M⁻¹ s⁻¹
Kd ([1]; M1, text and Figure 5B, read-out: KD): 370 nM
Kd [1, 15]: 317 nM
IC50 (MDA-MB-231 cells [2]): 5000 nM
apoptosis (Annexin V staining) (T47D cells [7]): dose-dependent increase in apoptosis
EdU-positive cells (MDA-MB-231 cells [8]): reduced number of EdU-positive cells
clonogenicity (MDA-MB-231 cells [9]): reduced in a dose-dependent manner
protein expression of Bcl-2 (Bcl-2 [10]): decreased the protein expression of Bcl-2
mitochondrial membrane potential (MMP) (MDA-MB-231 cells [11]): caused the disturbance of MMP
level of generated ROS (MDA-MB-231 cells [12]): elevation in the level of generated ROS
release of cytochrome c from mitochondria to cytosol (T47D cells [13]): increased the release of cytochrome c
cleaved PARP and cleaved caspase-3 (T47D and BT549 cells): increase
cell proliferation (cell viability) [14]: inhibits cell proliferation in concentration- and time- dependent

COc1cc(-c2cc(-c3ccccc3)nc(SCC(=O)Nc3cc(Cl)ccc3C)c2C#N)ccc1OCc1ccccc1 [M4]
Kd [1, 15]: 4760 nM
IC50 (MDA-MB-231 cells [2]): > 50000 nM

Cc1ccc(S(=O)(=O)N(Cc2ccc(Cl)cc2)c2ccccc2C(=O)Nc2ccc(S(=O)(=O)Nc3ccc(F)cc3)cc2)cc1 [M5]
Kd [1, 15]: 570 nM
IC50 (MDA-MB-231 cells [2]): > 50000 nM

Cc1ccc(S(=O)(=O)N(Cc2ccc(Cl)cc2)c2ccccc2C(=O)Nc2ccccc2C(=O)NC(C)c2ccccc2)cc1 (stereo not drawn) [M2]
Kd [1, 15]: 406 nM
IC50 (MDA-MB-231 cells [2]): > 50000 nM

CCOc1cccc(C2N(c3ccccc3)N=C(C(C)=O)N2c2ccc(N3CCOCC3)c(Cl)c2)c1OCc1ccc(Cl)cc1Cl (stereo not drawn) [M8]
Kd [1, 15]: 10800 nM
IC50 (MDA-MB-231 cells [2]): > 50000 nM

COc1ccc(/C=c2/sc3n(c2=O)C(c2ccc(Cl)cc2)C(C(=O)Nc2ccccc2)=C(C)N=3)cc1COc1ccc(F)cc1F (stereo not drawn) [M6]
Kd [1, 15]: 68.5 nM
IC50 (MDA-MB-231 cells [2]): > 50000 nM
